The test system of experiment [1] is histone H3 methylation at lysine 9 (H3-K9). In words: Western blot of histone H3 lysine 9 methylation. The class given is cell-based, human. As to conditions: HCT116 or MCF-7 cells, 5 μM, 48 and 72 hours. The protocol: Cell lines used in these examples were purchased from the American Type Culture Collection (Manassas, Va.). Cells were maintained in DMEM supplemented with 10% fetal bovine serum with glutamine, penicillin, and streptomycin. For drug treatment, cells were seeded the day before the drug treatment. Cells were treated with 5 μM 3-Deazaneplanocin A or 2 μM 5-aza-2'-deoxycytidine (5-AzaC; Sigma) for 72 hours and trichostatin A (TSA; Sigma) at 100 nM for 24 hours. For co-treatment of cells with 5-AzaC and TSA, 5-Aza was added for 48 hours and followed by TSA for 24 hours. Cell pellets were first lysed in RadioImmuno Precipitation Assay (RIPA) buffer, consisting of an aqueous solution of 25 mM Tris-HCl pH 7.6, 150 mM NaCl, 1% Nonidet-P 40 (NP-40), 1% sodium deoxycholate and 0.1% sodium dodecylsulfate (SDS), before further sonicated using a tissue homogeniser to release all the proteins. Equal amounts of protein were separated on SDS-polyacrylamide gels and transferred to polyvinylidene difluoride (PVDF) membranes. The blots were probed with antibodies against: EED (07-368), SUZ12 (07-379), SUV39H1 (07-550), BMI1 (05-637), tri-methylated H3-K27 (07-449), tri-methylated H3-K9 (07-442) and Acetyl-Histone H3 (06-599), and were purchased from Upstate. EZH2 (AC22) and Histone H3 (3H1) were from Cell Signaling. […]

Experiment [2] has as its system mRNA of EZH2, SUZ12 and EED. Description: RT-PCR of mRNA levels of PRC2 proteins. The class given is cell-based. Particulars: HCT116 cells, after 3-deazaneplanocin treatment. The protocol: FIG. 1B depicts the analysis of the mRNA levels of the PRC2 proteins EZH2, SUZ12, and EED by reverse transcription (RT-PCR) before (-) and after (+)3-deazaneplanocin treatment. HCT116 cells were treated as in (a) and total RNA was isolated for RT-PCR analysis GAPDH served as a control. […] Accordingly, trimethylation of histone 3 at […] In contrast, histone H3 methylation at […] (H3-K9) was not affected by 3-deazaneplanocin treatment.

The test system of experiment [3] is RNA polymerase II binding to PRC2 target gene promoters. Description: ChIP of RNA Pol II binding to PRC2 target gene promoters. In kind it is cell-based, human. As to conditions: MCF-7 cells, 5 μM, 48 hours. As for the experimental part: ChIP assays were performed as described previously. […] MCF-7 cell were seeded into 6-well plates at 30% confluence and treated with or without 3-deazaneplanocin (5 μM) for 48 hours. Cells were washed once in 1× phosphate-buffered saline (PBS) and then treated with 1% formaldehyde in PBS at 37° C. for […] followed by the addition of glycine to a final concentration of 0.125 M for 5 mM. Cells were then scraped on ice and centrifuged at 1500 rpm for 5 mM at 4° C. After washing with PBS cell pellets were resuspended in 1 mL of cold lysis buffer (10 mM HEPES at pH 7.5, 1 mM EDTA at pH 8.0, 400 mM NaCl, 10% glycerol, 0.5% NP-40, 0.5 mM phenylmethylsulfonyl fluoride, and protease inhibitors [1 mM benzamidine, 3 mg/mL leupeptin, 0.1 mg/mL bacitracin, 1 mg/mL macroglobulin]) followed by centrifugation at 11,500 rpm in a microfuge for 5 min at 4° C. to remove protein not cross-linked to chromatin. The resulting pellets were then resuspended again in 1 mL of cold lysis buffer and sonicated with a Heat Systems-Ultrasonics, Inc. W-220 sonicator at 20% output for a total of 2 mM (pulsed: 30 sec on/30 sec off). The resulting solution was cleared by centrifugation at maximum speed in a microfuge for 10 mM at 4° C. At this point 5% of the solution was taken and stored at −20° C. for the input chromatin sample. […]

On to `Nc1nccc2c1ncn2C1C=C(CO)C(O)C1O` (stereo not drawn) [3-deazaneplanocin, 5-(4-amino-1H-imidazo[4,5-c]pyridin-1-yl)-3-(hydroxymethyl)-3-cyclopentene-1,2-diol], for which the “histone H3 methylation at lysine 9 (H3-K9)” value in experiment [1] was “not affected”. Besides, the “mRNA levels of each of the PRC2 proteins (RT-PCR)” value in experiment [2] is on record as “remained unchanged”. Also, the “binding of RNA Pol II to PRC2 target gene promoters (ChIP)” value in experiment [3] is “increased”.

The values above are taken from US8058258B2, “Methods for cancer therapy and stem cell modulation” (Agency for Science, Technology and Research, priority 2006, dated 2011).
